The record followed here is patent EP0503411A1, “Substituted N-phenylpiperidines and medicaments thereof” (BASF Aktiengesellschaft, priority 1991, dated 1992).

pKi: −log10 of the molar value.

The subject of one test is Meerschweinchenherzen. Description: QT-prolonging effect, ECG measurement on isolated Langendorff-perfused guinea pig heart. Further details: species or system Duncin-Hartley-Meerschweinchen. As to conditions: concentration in perfusate giving 20 % increase of initial QT duration, cumulative addition every 15 min, from linear regression. From the text:
Die Wirkung der Phenylpiperidine I als Repolarisationshemmstoffe kann man durch EKG-Messungen belegen. Dabei unterteilt man die Herzperiode zeitlich in Systole (Zusammenziehen des Herzens), auch QT-Dauer genannt, und Diastole (Erschlaffung des Herzens mit Blutfüllung der Herzkammern). Repolarisationshemmstoffe bewirken nun eine Verlängerung der QT-Dauer ohne die Vorhofkammer-überleitungszeit (PQ-Dauer) und die Anspannungszeit (QRS-Dauer, Beginn der Systole bis zum öffnen der Semilunarklappen) wesentlich zu verändern (s. Pschyrembel, 254. Auflage, 1982).
Die Wirksamkeit der erfindungsgemäßen Verbindungen als Repolarisationshemmstoffe läßt sich im Tierversuch durch EKG-Messungen beispielsweise am Meerschweinchenherzen untersuchen (s. Basic Res. Cardiol. 82 (1987) 437; J. Pharmacol. Methods 21 (1989) 195). Zum Vergleich der Wirksamkeit mehrerer Substanzen dient dabei zum Beispiel die Dosis eines Wirkstoffes, bei der eine 20 %ige Zunahme des QT-Ausgangswertes eintritt (ED₂₀ %). Hierzu trägt man die logarithmierten Dosiswerte der jeweiligen Substanzen gegen die experimentell gefundenen relativen Änderungen der QT-Dauer auf, und ermittelt mittels linearer Regression die Funktionsgleichung einer Geraden, aus der man dann den ED20 %-Wert berechnen kann.
Mit dieser Methode wurden die ED20 %-Werte erfindungsgemäßer Verbindungen bestimmt (s. Tabelle 1). Als Vergleichssubstanz diente D-Sotalol [4'-(1-Hydroxy-2-(isopropylamino)-ethyl)methansulfonanilid].
Als Versuchstiere dienten männliche Duncin-Hartley-Meerschweinchen mit einem Körpergewicht von 300 bis 350 g. 30 min nach Applikation von 1250 I.E. Heparin/kg Körpergewicht in den Bauchraum wurden die Tiere durch Genickschlag getötet. Nach dem Durchtrennen der Kopfschlagadern zum Entbluten, wurde der Bruststamm geöffnet, das Herz herausgetrennt und an eine Perfusionsapparatur angeschlossen. Die Perfusion erfolgte nach Langendorff mit Sauerstoff angereicherter auf 37°C erwärmter Krebs-Henseleit-Lösung (NaCl 6896 mg/l; KCl 350 mg/l; MgSO₄ 285 mg/l; CaCl₂ 370 mg/l; KH₂PO₄ 161 mg/l; NaHCO₃ 2090 mg/l; Glukose 2000 mg/l). Dabei wurde das Perfusionsvolumen pro Zeiteinheit bei einem Gesamtvolumen von 100 ml auf 4 bis 6 ml/min und der Perfusionsdruck auf 60 bis 70 mm Hg eingestellt. Nach einer Äquilibrierzeit von 30 min wurde zirkulierend perfundiert.
Die EKG-Messungen wurden über zwei Silberelektroden, die auf der Herzoberfläche im oberen Bereich der linken Koronararterie und auf der Rückseite des Herzens auf Höhe der Ventilebene angebracht waren, aufgenommen. Gemessen wurden die PQ-, QT- und QRS-Zeiten sowie die Herzfrequenz.
Die Substanzgabe erfolgte kumulativ im Abstand von 15 min ins Perfusat.

The next test concerns the target Sigma-Rezeptor. Description: Sigma receptor binding test ([³H]-Ditolylguanidin binding, rat cerebrum membranes). Also noted: species or system Ratte. As to conditions: [³H]-Ditolylguanidin-Bindungsstelle, 37°C. From the text:
Der verwendete Bindungsassay (Bindung von [³H]-Ditolylguanidin) erfaßt sogenannte "Haloperidolsensitive-Sigma-Rezeptoren", die eine hohe Affinität zum Haloperidol, aber nur geringe Affinität zum Phencyclidin und zu Opoiden aufweisen.
Life Sciences 47, 1073 (1990)], eingesetzt.
Rattengroßhirne wurden in dem 10fachen Volumen Homogenisierungspuffer (50 mmol Tris(hydroxymethyl)-amino-methan, 0,1 mmol Ethylendiamintetraacetat, pH=7,7) mit einem Polytron-Homogenisiator homogenisiert (20 sec.). Nach 15 Minuten Zentrifugation bei 40000 Umdrehungen/min wurde das erhaltene Pellet resuspendiert und die Suspension erneut 15 Minuten lang mit 40000 Umdrehungen/min zentrifugiert. Das hierbei erhaltene Pellet wurde im 5fachen Volumen Homogenisierungspuffer resuspendiert und bis zur weiteren Verwendung in flüssigem Stickstoff eingefroren.
Testsubstanz und Membranen (0,3 mg Protein) wurden in 0,3 ml Inkubationspuffer (5 mmol Tris(hydroxymethyl)-amino-methan, 0,1 mmol Ethylendiamintetraacetat, pH=7,7) 45 Minuten bei 37°C inkubiert. Nach Zugabe von 100 000 dpm [³H]-Ditolylguanidin (54,5 Ci/mmol) wurde noch 1 Stunde inkubiert. Die Membranen wurden über GF/B-Filter (dunn-Labortechnik, Asbach) filtriert und mit einem 37°C warmen Waschpuffer (5 mmol Tris(hydroxymethyl)-amino-methan, 0,1 mmol Ethylendiamintetraacetat, pH=7,4) gewaschen. Die verbleibende Radioaktivität auf den Filtern wurde durch Flüssig-Scintillationszählung gemessen. Die Bindungsdaten wurden durch iterative Anpassungsprogramme analysiert.

In general, pKi refers to the Ki on a negative log10 scale, so that one unit is a factor of ten. Read a high pKi as a small Ki. As for `CN(Cc1ccccc1)C1CCCN(c2ccc([N+](=O)[O-])cc2)C1` (stereo not shown) [Beispiel 11, 3-(N-Benzyl-N-methylamino)-1-(4-nitrophenyl)-piperidin], the ED20 % in the test with Meerschweinchenherzen is 1,1 µmol/l. In addition, the negative logarithm of the Ki (pKi) at Sigma-Rezeptor was 8.70.

Regarding `CN(CC(O)c1ccc(F)cc1)C1CCN(c2ccc([N+](=O)[O-])cc2)CC1` (stereo not shown) [Beispiel 12, 4-[N,N-[2-(4-Fluorphenyl)-2-hydroxyethyl]methylamino]-1-(4-nitrophenyl)-piperidin], the ED20 % in the test on Meerschweinchenherzen is given as 0,21 µmol/l. Regarding `CN(Cc1ccccc1)CC1CCN(c2ccc([N+](=O)[O-])cc2)CC1` [Beispiel 2, 4-(N-Benzyl-N-methylaminomethyl)-1-(4-nitrophenyl)-piperidin], in the test with Meerschweinchenherzen, the ED20 % is 0,42 µmol/l. This molecule also gave a pKi at Sigma-Rezeptor of 7.96. On to `Cc1ccccc1NC(=N)Nc1ccccc1C` [DTG, 1,3-Di-o-tolyl-guanidin, reference compound], for which, at Sigma-Rezeptor, the pKi is 7.54. With “1-(4-Nitrophenyl)-4-(4-phenyl-1-piperidinoyl)-piperidin [Beispiel 8]”, on Sigma-Rezeptor, the pKi was 8.55. As to `CC(C)NCC(O)c1ccc(NS(C)(=O)=O)cc1` [D-Sotalol, 4'-(1-Hydroxy-2-(isopropylamino)-ethyl)methansulfonanilid, reference compound], the ED20 % in the test with Meerschweinchenherzen is given as 16,0 µmol/l.

In the case of `CN(Cc1ccc(NS(C)(=O)=O)cc1)CC1CCN(c2ccc(NS(C)(=O)=O)cc2)CC1` [Beispiel 10, 1-(4-Methansulfonamidophenyl)-4-(N-(4-methansulfonamidobenzyl)-N-methylaminomethyl)-piperidin], the ED20 % with Meerschweinchenherzen is given as 0,96 µmol/l. Still for that read-out and setting: the same measure for `N#Cc1ccc(N2CCC(N3CCN(c4ccc([N+](=O)[O-])cc4)CC3)CC2)cc1` [Beispiel 3, N-[4-N(4-Cyanophenyl)piperidinoyl]-N'³(4-nitrophenyl)-piperazin]: 0,031 µmol/l.
